Three compounds from article PMC12263422, “Cryo-EM structure of the human THIK-1 K2P K^+ channel reveals a lower Y gate regulated by lipids and anesthetics” (Nature Structural & Molecular Biology, 2025) can be followed below.

One may read the IC50 as the concentration that inhibits the measured activity by half. One may read the EC50 as the concentration at which the effect is half-maximal. By inhibition is commonly meant the share of the control response that was lost under treatment. Low values mean a response near the control, high ones a response far below the control.

“And” between values parts separate entries of the source, which are not always exact repeats. Identical values can stand only once. Like-named read-outs stand apart in the source and are kept apart here.

What all share (assay type): cell-based
One experiment has as its target T1, THIK-1 T110A (Homo sapiens, UniProt Q9HB14, T110A).
T1 construct: expressed in transfected cells; host or cells: Xenopus oocytes (mRNA injection)
T1 sequence (Q9HB14 1-408 T110A): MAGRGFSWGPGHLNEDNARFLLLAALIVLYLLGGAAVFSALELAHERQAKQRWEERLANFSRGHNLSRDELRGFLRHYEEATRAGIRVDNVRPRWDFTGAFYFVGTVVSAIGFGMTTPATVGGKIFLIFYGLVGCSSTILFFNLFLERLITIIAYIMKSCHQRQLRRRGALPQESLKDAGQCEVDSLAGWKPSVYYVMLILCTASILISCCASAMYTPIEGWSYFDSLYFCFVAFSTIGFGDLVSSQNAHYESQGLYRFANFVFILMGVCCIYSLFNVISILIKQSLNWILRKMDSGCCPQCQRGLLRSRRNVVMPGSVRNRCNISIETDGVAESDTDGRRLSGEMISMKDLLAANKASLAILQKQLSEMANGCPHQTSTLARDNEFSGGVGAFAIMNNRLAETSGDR
The experiment in a line: Inside-out excised patch recordings, oocytes, THIK-1 T110A mutant. From the text:
Human K2P13.1 THIK-1 (GenBank accession number: NM_022054) and human K2P12.1 THIK-2 (NM_022055.1) were used in this study. For functional expression studies, the respective K^+ channel subtype coding sequences were subcloned into the oocyte expression vector pSGEM or the dual-purpose expression vector pFAW[41] and verified by sequencing. All mutant channels were obtained by site-directed mutagenesis and verified by sequencing. To increase surface expression and macroscopic currents, measurements of THIK-2 channels used a mutated ER retention motif, (R11A R12A R14A R15A R16A; THIK-2*)[20]. Vector DNA was linearized with NheI or MluI, and mRNA was synthesized in vitro using the SP6 or T7 AmpliCap Max High Yield Message Maker Kit (Cellscript, USA) or HiScribe T7 ARCA mRNA Kit (New England Biolabs).
Two-electrode voltage–clamp (TEVC) studies were performed in Xenopus oocytes. All animal use conformed to the Guide for the Care and Use of Laboratory Animals (NIH Publication 85–23), and all experiments using Xenopus toads were approved by the local ethics panels. Oocytes were stored at 17 °C in ND96 recording solution composed of (in mM): 96 NaCl, 2 KCl, 1.8 CaCl2, 1 MgCl2, 5 HEPES (pH 7.5 adjusted with NaOH and HCl), supplemented with Na-pyruvate (275 mg L^–1), theophylline (90 mg L^–1) and gentamicin (50 mg L^–1). Oocytes were injected with 1 ng mRNA for WT or mutant channels, and were incubated for 24–48 h at 17 °C. Two-electrode voltage clamp recordings were then performed as previously described[42],[43]. For macroscopic patch–clamp measurements, oocytes were obtained as described above incubated at 17 °C in a solution containing (mM): 54 NaCl, 30 KCl, 2.4 NaHCO3, 0.82 MgSO4 ×7 H2O, 0.41 CaCl2, 0.33 Ca(NO3)2 ×4 H2O and 7.5 TRIS (pH 7.4 adjusted with NaOH and HCl) for 1–4 days before use. Excised patch recordings in inside-out configuration conditions were performed at room temperature. Patch pipettes were made from thick-walled borosilicate glass GB 200TF-8P (Science Products), had resistances of 0.2–0.5 MΩ (tip diameter, 10–25 µm) and filled with a pipette solution (in mM): 120 KCl, 10 HEPES and 3.6 CaCl2 (pH 7.4 adjusted with KOH and HCl). Intracellular bath solutions and compounds were applied to the cytoplasmic side of excised patches for the various K^+ channels through a gravity flow multi-barrel pipette system. The intracellular solution had the following composition (in mM): 120 KCl, 10 HEPES, 2 EGTA and 1 pyrophosphate (pH adjusted with KOH and HCl). Currents were recorded with an EPC10 amplifier (HEKA Electronics) and sampled at 10 kHz or higher, with filtering set to 3 kHz (–3 dB) or higher, as appropriate for sampling rate. For measurements of GPCR activation, whole-cell currents were recorded for THIK-1 in transiently transfected HEK-293 cells. Cells were stimulated by a ramp protocol between −100 and +60 mV (holding potential, −80 mV). The pipette solution was composed of (in mM): 140 KCl, 2 MgCl2, 1 CaCl2, 2.5 EGTA and 10 HEPES (pH 7.3 adjusted with KOH and HCl). The extracellular bath solution had the following composition (in mM): 135 NaCl, 5 KCl, 2 MgCl2, 2 CaCl2, 10 glucose and 10 HEPES pH (pH 7.3 adjusted with NaOH and HCl). Oxotremorine M (Oxo-M) was added to extracellular bath solution to obtain the final concentration. Single-channel currents were recorded with an Axopatch 200B amplifier through a Digidata 1440A digitizer (Molecular Devices). Data were filtered at 2 kHz and recorded at a 200-kHz sampling rate with the program Clampex (Molecular Devices). Pipette solution and bath solution for cell-attached recordings contained (in mM): 140 KCl, 2 MgCl2, 1 CaCl2 and 10 HEPES (pH 7.4 adjusted with KOH and HCl). For inside-out recordings, the bath solution contained (in mM): 140 KCl, 2 MgCl2, 1 CaCl2 and 10 HEPES (pH 7.2 adjusted with KOH and HCl). All experiments were conducted at room temperature. […]

The next experiment concerns the target T2, THIK-1 S136A (Homo sapiens, UniProt Q9HB14, S136A).
T2 construct: expressed in transfected cells; host or cells: Xenopus oocytes (mRNA injection)
Kind of experiment: Inside-out excised patch recordings, oocytes, THIK-1 S136A mutant. As to conditions: read-out: TPenA IC50. From the text:
Supplement 41594_2025_1497_MOESM2_ESM.xlsx, sheet "ExtData_Fig_S2c" | column: Normalized currents

The next experiment concerns the target T3, THIK-1 S109A (Homo sapiens, UniProt Q9HB14, S109A).
T3 construct: expressed in transfected cells; host or cells: Xenopus oocytes (mRNA injection)
The experiment in a line: Inside-out excised patch recordings, oocytes, THIK-1 S109A mutant (lipid activation). The conditions noted are these: read-out: Linoleic acid EC50. From the text:
Supplement 41594_2025_1497_MOESM2_ESM.xlsx, sheet "ExtData_Fig_S5f" | column: Linoleic acid EC50 (µM); S109A

T3 sequence (Q9HB14 whole entry S109A): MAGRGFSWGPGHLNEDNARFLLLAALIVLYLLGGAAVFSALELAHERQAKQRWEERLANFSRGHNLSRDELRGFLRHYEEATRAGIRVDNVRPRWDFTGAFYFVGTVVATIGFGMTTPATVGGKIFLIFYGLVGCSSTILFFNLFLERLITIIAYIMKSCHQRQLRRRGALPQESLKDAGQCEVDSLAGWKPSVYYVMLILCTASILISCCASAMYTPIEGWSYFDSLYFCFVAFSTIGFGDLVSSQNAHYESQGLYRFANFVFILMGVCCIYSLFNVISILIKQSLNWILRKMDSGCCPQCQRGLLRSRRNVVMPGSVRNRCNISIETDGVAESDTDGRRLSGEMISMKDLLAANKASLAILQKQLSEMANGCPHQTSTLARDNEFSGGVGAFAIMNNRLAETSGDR
T2 sequence (Q9HB14 whole entry S136A): as the sequence (Q9HB14 whole entry S109A) above, with A109S, S136A counted along it

On to `CCCCC[N+](CCCCC)(CCCCC)CCCCC` [TPenA, tetrapentylammonium], for which the Normalized currents is 1.00 at THIK-1 T110A (THIK-1 T110A, 15.6 µM TPenA); 0.95 on THIK-1 T110A (THIK-1 T110A, 62.5 µM TPenA); 0.81 on THIK-1 T110A (THIK-1 T110A, 250 µM TPenA); 0.57 at THIK-1 T110A (THIK-1 T110A, 1000 µM TPenA); 0.28 at THIK-1 T110A (THIK-1 T110A, 4000 µM TPenA). The half-inhibitory concentration (IC50) against THIK-1 T110A (TPenA IC50, T110A mutant) was 1280 µM; on THIK-1 T110A (TPenA IC50, THIK-1 T110A, individual recordings), 583 µM and 1570 µM and 596 µM and 1530 µM and 2420 µM and 1850 µM and 1140 µM and 1600 µM and 1210 µM and 982 µM and 651 µM; at THIK-1 T110A (TPenA IC50, THIK-1 T110A, mean) it was 1280 µM; on THIK-1 S136A (individual recordings), 102 µM and 173 µM and 396 µM and 375 µM and 349 µM and 120 µM and 192 µM; at THIK-1 S136A (mean) it was 244 µM.

Take `CCCCC/C=C\C/C=C\CCCCCCCC(=O)O` [linoleic acid]: the half-maximal effective concentration (EC50) on THIK-1 S109A (individual recordings) is 47.5 µM and 45.3 µM and 76.4 µM and 21.1 µM and 36.6 µM and 51 µM and 47.6 µM and 129 µM; on THIK-1 S109A (mean) it was 56.8 µM.

Take `FC(F)(F)C(Cl)Br` (stereo not drawn) [halothane]: on THIK-1 T110A (3.0 mM halothane, T110A, individual recordings), the “Inhibition (%)” value is 71.250% and 68.098% and 66.319% and 64.813% and 55.507% and 41.148% and 63.240% and 65.945% and 75.271%. In addition, at THIK-1 T110A (halothane 0.152 mM, THIK-1 T110A), at 152 µM the inhibition was 9.23%. The compound further gave an inhibition at 304 µM at THIK-1 T110A (halothane 0.304 mM, THIK-1 T110A) of 14.1%. The compound further returned an inhibition at 1520 µM against THIK-1 T110A (halothane 1.52 mM, THIK-1 T110A) of 45.3%. Moreover, the inhibition at 3040 µM on THIK-1 T110A (halothane 3.04 mM, THIK-1 T110A) worked out at 63.5%. At THIK-1 T110A (halothane 15.2 mM, THIK-1 T110A), this compound showed an inhibition at 15200 µM of 89.5%.
